Square brackets hold non-standard residues; d marks the D form. Peptide text beside a SMILES is read from it. * marks the point of attachment. DOTA = O=C(O)CN1CCN(CC(=O)O)CCN(CC(=O)*)CCN(CC(=O)O)CC1; Gly(N-(3-F-4-Me-benzyl)) = Cc1ccc(CNCC(=O)*)cc1F; Butanoyl(4-(4-I-phenyl)) = O=C(CCCc1ccc(I)cc1)*; Gly(N-3-F-4-Me-benzyl) = Cc1ccc(CNCC(=O)O)cc1F; Butanoyl(4-(4-MePh)) = Cc1ccc(CCCC(=O)*)cc1; Api(1-amidino) = N=C(N)N1CCC(N)(C(=O)O)CC1; Hydrocinnamoyl(4-Me) = Cc1ccc(CCC(=O)*)cc1; Bip = N[C@@H](Cc1ccc(-c2ccccc2)cc1)C(=O)O; Hydrocinnamoyl(4-I) = O=C(CCc1ccc(I)cc1)*; d2Nal = N[C@H](Cc1ccc2ccccc2c1)C(=O)O; Cha = N[C@@H](CC1CCCCC1)C(=O)O; Lauroyl = CCCCCCCCCCCC(=O)*; Octanoyl = CCCCCCCC(=O)*; Api = NC1(C(=O)O)CCNCC1; PEG2 = NCCOCCOCCC(=O)O; Ahx = NCCCCCC(=O)O; azaGly = NNC(=O)O; Sar = CNCC(=O)O
Target: human kisspeptin receptor (Homo sapiens (Human), UniProt Q969F8)
Sequence (Q969F8 whole entry): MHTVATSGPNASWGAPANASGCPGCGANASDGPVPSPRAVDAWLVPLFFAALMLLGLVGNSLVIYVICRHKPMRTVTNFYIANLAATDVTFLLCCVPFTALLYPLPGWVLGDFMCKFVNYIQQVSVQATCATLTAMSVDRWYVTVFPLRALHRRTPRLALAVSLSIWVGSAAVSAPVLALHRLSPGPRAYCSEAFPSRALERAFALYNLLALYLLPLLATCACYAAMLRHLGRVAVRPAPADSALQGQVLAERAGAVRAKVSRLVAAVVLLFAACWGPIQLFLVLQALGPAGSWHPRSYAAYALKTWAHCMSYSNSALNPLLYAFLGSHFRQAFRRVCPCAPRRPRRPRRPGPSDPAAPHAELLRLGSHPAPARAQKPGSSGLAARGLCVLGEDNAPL
Test: Human KISS1R binding assay (membrane competition binding)
Conditions: 90 min at room temperature; competition with 0.2 nM [125I]-metastin (45-54); Flp-In T-Rex 293 kisspeptin membranes; metal complexes nonradioactive Ga, In, Lu; read-out: hKiSSR Binding Ki (90 min)
Outline: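 Membranes from tetracycline-induced (48 h) Flp-In T-Rex 293 cells expressing receptor, 5–10 μg, incubated 90 min at room temperature with 0.2 nM [125I]-metastin (45-54) and competitor (typically 0–10,000 nM) in Tris/Mg/Ca/EGTA/0.1% BSA, pH 7.4. Filtration, washing, counting; Ki by non-linear regression.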

Row | Compound | Ki
1 | CNCC(=O)N1CCC(NC(=O)[C@H](CC(C)C)NC(=O)NNC(=O)[C@H](Cc2ccccc2)NC(=O)[C@@H](NC(=O)[C@H](CC(N)=O)NC(=O)[C@H](CCCCNC(=O)CN2CCN(CC(=O)O)CCN(CC(=O)O)CCN(CC(=O)O)CC2)NC(=O)[C@@H](Cc2ccc(O)cc2)NC(=O)CCOCCOCCNC(=O)CNCc2ccc(C)c(F)c2)[C@@H](C)O)(C(=O)N[C@@H](Cc2c[nH]c3ccccc23)C(N)=O)CC1 [Compound 384] (H-[Gly(N-3-F-4-Me-benzyl)][PEG2][dY]K(DOTA)NTF[azaGly]L[Api](Sar)W-NH2) | < 10 nM
2 | CNCC(=O)N1CCC(NC(=O)[C@H](CC(C)C)NC(=O)NNC(=O)[C@H](Cc2ccccc2)NC(=O)[C@@H](NC(=O)[C@H](CC(N)=O)NC(=O)[C@H](CCCCNC(=O)CN2CCN(CC(=O)O)CCN(CC(=O)O)CCN(CC(=O)O)CC2)NC(=O)[C@@H](Cc2ccc(O)cc2)NC(=O)CNCc2ccc(C)c(F)c2)[C@@H](C)O)(C(=O)N[C@@H](Cc2c[nH]c3ccccc23)C(N)=O)CC1 [Compound 386] (H-[Gly(N-3-F-4-Me-benzyl)][dY]K(DOTA)NTF[azaGly]L[Api](Sar)W-NH2) | < 10 nM
3 | CNCC(=O)N1CCC(NC(=O)[C@H](CC(C)C)NC(=O)NNC(=O)[C@H](CC2CCCCC2)NC(=O)[C@@H](NC(=O)[C@H](CC(N)=O)NC(=O)[C@H](CCCCNC(=O)CN2CCN(CC(=O)O)CCN(CC(=O)O)CCN(CC(=O)O)CC2)NC(=O)[C@@H](Cc2ccc(O)cc2)NC(=O)CCOCCOCCNC(=O)CCc2ccc(C)cc2)[C@@H](C)O)(C(=O)N[C@@H](Cc2c[nH]c3ccccc23)C(N)=O)CC1 [Compound 387] ({Hydrocinnamoyl(4-Me)-PEG2}-[dY]K(DOTA)NT[Cha][azaGly]L[Api](Sar)W-NH2) | < 10 nM
4 | CNCC(=O)N1CCC(NC(=O)[C@H](CC(C)C)NC(=O)NNC(=O)[C@H](Cc2ccccc2)NC(=O)[C@@H](NC(=O)[C@H](CC(N)=O)NC(=O)[C@H](Cc2ccc(-c3ccccc3)cc2)NC(=O)[C@@H](Cc2ccc(O)cc2)NC(=O)CCCCCNC(=O)CN2CCN(CC(=O)O)CCN(CC(=O)O)CCN(CC(=O)O)CC2)[C@@H](C)O)(C(=O)N[C@H](Cc2c[nH]c3ccccc23)C(N)=O)CC1 [Compound 389] ({DOTA-Ahx}-[dY][Bip]NTF[azaGly]L[Api](Sar)[dW]-NH2) | < 10 nM
5 | CC(=O)N[C@@H](Cc1ccccc1)C(=O)NNC(=O)N[C@@H](CC(C)C)C(=O)NC1(C(=O)N[C@@H](Cc2c[nH]c3ccccc23)C(N)=O)CCN(C(=O)CNCc2ccc(C)c(F)c2)CC1 [Compound 392] (Ac-F[azaGly]L[Api](Gly(N-(3-F-4-Me-benzyl)))W-NH2) | < 10 nM
6 | CNCC(=O)N1CCC(NC(=O)[C@H](CC(C)C)NC(=O)NNC(=O)[C@H](Cc2ccccc2)NC(=O)[C@@H](NC(=O)[C@H](CC(N)=O)NC(=O)[C@@H](Cc2ccc3ccccc3c2)NC(=O)[C@@H](Cc2ccc(O)cc2)NC(C)=O)[C@@H](C)O)(C(=O)N[C@@H](Cc2c[nH]c3ccccc23)C(N)=O)CC1 [Compound 393] (Ac-[dY][d2Nal]NTF[azaGly]L[Api](Sar)W-NH2) | < 10 nM
7 | CC(C)C[C@H](NC(=O)NNC(=O)[C@H](Cc1ccccc1)NC(=O)[C@@H](NC(=O)[C@H](CC(N)=O)NC(=O)[C@@H](Cc1ccc2ccccc2c1)NC(=O)[C@@H](Cc1ccc(O)cc1)NC(=O)CCOCCOCCNC(=O)CCc1ccc(I)cc1)[C@@H](C)O)C(=O)NC1(C(=O)N[C@@H](Cc2c[nH]c3ccccc23)C(N)=O)CCN(C(=N)N)CC1 [Compound 394] ({Hydrocinnamoyl(4-I)-PEG2}-[dY][d2Nal]NTF[azaGly]L[Api(1-amidino)]W-NH2) | < 10 nM
8 | CNCC(=O)N1CCC(NC(=O)[C@H](CC(C)C)NC(=O)NNC(=O)[C@H](Cc2ccccc2)NC(=O)[C@@H](NC(=O)[C@H](CC(N)=O)NC(=O)[C@@H](Cc2ccc3ccccc3c2)NC(=O)[C@@H](Cc2ccc(O)cc2)NC(=O)CCCc2ccc(I)cc2)[C@@H](C)O)(C(=O)N[C@@H](Cc2c[nH]c3ccccc23)C(N)=O)CC1 [Compound 395] ({Butanoyl(4-(4-I-phenyl))}-[dY][d2Nal]NTF[azaGly]L[Api](Sar)W-NH2) | < 10 nM
9 | CC(C)C[C@H](NC(=O)NNC(=O)[C@H](Cc1ccccc1)NC(=O)[C@@H](NC(=O)[C@H](CC(N)=O)NC(=O)[C@@H](Cc1ccc2ccccc2c1)NC(=O)[C@@H](Cc1ccc(O)cc1)NC(=O)CCOCCOCCNC(=O)CCc1ccc(I)cc1)[C@@H](C)O)C(=O)NC1(C(=O)N[C@@H](Cc2ccccc2)C(N)=O)CCN(C(=N)N)CC1 [Compound 396] ({Hydrocinnamoyl(4-I)-PEG2}-[dY][d2Nal]NTF[azaGly]L[Api(1-amidino)]F-NH2) | < 10 nM
10 | CC(C)C[C@H](NC(=O)NNC(=O)[C@H](Cc1ccccc1)NC(=O)[C@@H](NC(=O)[C@H](CC(N)=O)NC(=O)[C@@H](Cc1ccc2ccccc2c1)NC(=O)[C@@H](Cc1ccc(O)cc1)NC(=O)CCOCCOCCNC(=O)CCc1ccc(I)cc1)[C@@H](C)O)C(=O)NC1(C(=O)N[C@@H](Cc2ccc(O)cc2)C(N)=O)CCN(C(=N)N)CC1 [Compound 397] ({Hydrocinnamoyl(4-I)-PEG2}-[dY][d2Nal]NTF[azaGly]L[Api(1-amidino)]Y-NH2) | < 10 nM
11 | CNCC(=O)N1CCC(NC(=O)[C@H](CC(C)C)NC(=O)NNC(=O)[C@H](Cc2ccccc2)NC(=O)[C@@H](NC(=O)[C@H](CC(N)=O)NC(=O)[C@@H](Cc2ccc3ccccc3c2)NC(=O)[C@@H](Cc2ccc(O)cc2)NC(=O)CCCc2ccc(I)cc2)[C@@H](C)O)(C(=O)N[C@@H](Cc2ccccc2)C(N)=O)CC1 [Compound 398] ({Butanoyl(4-(4-I-phenyl))}-[dY][d2Nal]NTF[azaGly]L[Api](Sar)F-NH2) | < 10 nM
12 | CNCC(=O)N1CCC(NC(=O)[C@H](CC(C)C)NC(=O)NNC(=O)[C@H](Cc2ccccc2)NC(=O)[C@@H](NC(=O)[C@H](CC(N)=O)NC(=O)[C@@H](Cc2ccc3ccccc3c2)NC(=O)[C@@H](Cc2ccc(O)cc2)NC(=O)CCCc2ccc(I)cc2)[C@@H](C)O)(C(=O)N[C@@H](Cc2ccc(O)cc2)C(N)=O)CC1 [Compound 399] ({Butanoyl(4-(4-I-phenyl))}-[dY][d2Nal]NTF[azaGly]L[Api](Sar)Y-NH2) | < 10 nM

More lines, now with the values ahead:

Row | Ki | Compound
13 | < 10 nM | CC(=O)N[C@H](Cc1ccc(O)cc1)C(=O)N[C@H](Cc1c[nH]c2ccccc12)C(=O)N[C@@H](CC(N)=O)C(=O)N[C@H](C(=O)N[C@@H](Cc1ccccc1)C(=O)NNC(=O)N[C@@H](CC(C)C)C(=O)NC1(C(=O)N[C@@H](Cc2c[nH]c3ccccc23)C(N)=O)CCN(C(=O)CNCc2ccc(C)c(F)c2)CC1)[C@@H](C)O [Compound 390] (Ac-[dY][dW]NTF[azaGly]L[Api](Gly(N-(3-F-4-Me-benzyl)))W-NH2)
14 | < 10 nM | CC(=O)N[C@H](Cc1ccc(O)cc1)C(=O)N[C@H](Cc1c[nH]c2ccccc12)C(=O)N[C@@H](CC(N)=O)C(=O)N[C@H](C(=O)N[C@@H](CC1CCCCC1)C(=O)NNC(=O)N[C@@H](CC(C)C)C(=O)NC1(C(=O)N[C@@H](Cc2c[nH]c3ccccc23)C(N)=O)CCN(C(=O)CNCc2ccc(C)c(F)c2)CC1)[C@@H](C)O [Compound 391] (Ac-[dY][dW]NT[Cha][azaGly]L[Api](Gly(N-(3-F-4-Me-benzyl)))W-NH2)
15 | < 10 nM | CCCCCCCCCCCC(=O)N[C@H](Cc1ccc(O)cc1)C(=O)N[C@H](Cc1ccc2ccccc2c1)C(=O)N[C@@H](CC(N)=O)C(=O)N[C@H](C(=O)N[C@@H](Cc1ccccc1)C(=O)NNC(=O)N[C@@H](CC(C)C)C(=O)NC1(C(=O)N[C@@H](Cc2c[nH]c3ccccc23)C(N)=O)CCN(C(=O)CNC)CC1)[C@@H](C)O [Compound 400] (Lauroyl-[dY][d2Nal]NTF[azaGly]L[Api](Sar)W-NH2)
16 | < 10 nM | CCCCCCCCCCCC(=O)N[C@H](Cc1ccc(O)cc1)C(=O)N[C@H](Cc1ccc2ccccc2c1)C(=O)N[C@@H](CC(N)=O)C(=O)N[C@H](C(=O)N[C@@H](Cc1ccccc1)C(=O)NNC(=O)N[C@@H](CC(C)C)C(=O)NC1(C(=O)N[C@@H](Cc2ccc(O)cc2)C(N)=O)CCN(C(=O)CNC)CC1)[C@@H](C)O [Compound 401] (Lauroyl-[dY][d2Nal]NTF[azaGly]L[Api](Sar)Y-NH2)
17 | < 10 nM | Cc1ccc(CNCC(=O)N2CCC(NC(=O)[C@H](CC(C)C)NC(=O)NNC(=O)[C@H](Cc3ccccc3)NC(=O)[C@@H](NC(=O)[C@H](CC(N)=O)NC(=O)[C@@H](Cc3c[nH]c4ccccc34)NC(=O)[C@H](N)Cc3ccc(O)cc3)[C@@H](C)O)(C(=O)N[C@@H](Cc3c[nH]c4ccccc34)C(N)=O)CC2)cc1F [Compound 402] (H-[dY][dW]NTF[azaGly]L[Api](Gly(N-(3-F-4-Me-benzyl)))W-NH2)
18 | < 10 nM | Cc1ccc(CCCC(=O)N[C@H](Cc2ccc(O)cc2)C(=O)N[C@H](Cc2c[nH]c3ccccc23)C(=O)N[C@@H](CC(N)=O)C(=O)N[C@H](C(=O)N[C@@H](Cc2ccccc2)C(=O)NNC(=O)N[C@@H](CC(C)C)C(=O)NC2(C(=O)N[C@@H](Cc3c[nH]c4ccccc34)C(N)=O)CCN(C(=O)CNCc3ccc(C)c(F)c3)CC2)[C@@H](C)O)cc1 [Compound 403] ({Butanoyl(4-(4-MePh))}-[dY][dW]NTF[azaGly]L[Api](Gly(N-(3-F-4-Me-benzyl)))W-NH2)
19 | < 10 nM | Cc1ccc(CNCC(=O)N2CCC(NC(=O)[C@H](CC(C)C)NC(=O)NNC(=O)[C@H](CC3CCCCC3)NC(=O)[C@@H](NC(=O)[C@H](CC(N)=O)NC(=O)[C@@H](Cc3c[nH]c4ccccc34)NC(=O)[C@H](N)Cc3ccc(O)cc3)[C@@H](C)O)(C(=O)N[C@@H](Cc3c[nH]c4ccccc34)C(N)=O)CC2)cc1F [Compound 404] (H-[dY][dW]NT[Cha][azaGly]L[Api](Gly(N-(3-F-4-Me-benzyl)))W-NH2)
20 | < 10 nM | CCCCCCCC(=O)N[C@H](Cc1ccc(O)cc1)C(=O)N[C@H](Cc1c[nH]c2ccccc12)C(=O)N[C@@H](CC(N)=O)C(=O)N[C@H](C(=O)N[C@@H](CC1CCCCC1)C(=O)NNC(=O)N[C@@H](CC(C)C)C(=O)NC1(C(=O)N[C@@H](Cc2c[nH]c3ccccc23)C(N)=O)CCN(C(=O)CNCc2ccc(C)c(F)c2)CC1)[C@@H](C)O [Compound 405] (Octanoyl-[dY][dW]NT[Cha][azaGly]L[Api](Gly(N-(3-F-4-Me-benzyl)))W-NH2)

From patent US20250312499A1, “KISSPEPTIN RECEPTOR (KISS1R) TARGETED THERAPEUTICS AND USES THEREOF” (priority 2024, published 2025)
